Each structure is given as a SMILES string.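 Following 48 hours of exposure in 96-well plates, responses at five concentrations were used to interpolate endpoints linearly. GI50 is the concentration that inhibits growth by half. Definition used: TGI = concentration required for complete inhibition of growth.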 Where only a bound is given, the exact number is not on record here.

Among the test systems are SF-539 CNS; MALME-3M melanoma; SK-MEL-28 melanoma; HCT-116 colon; SF-268 CNS; OVCAR-8 ovarian; M14 melanoma; 786-0 renal; HCT-15 colon; UO-31 renal.
Holding throughout (assay): NCI anticancer screen, dose series, 48 h

On to `Cc1ccc(/C(=C/C=C(C#N)C#N)Sc2ccc(Cl)cc2)cc1`, for which the GI50 with SF-539 CNS was 2.66 µM; in the assay on MALME-3M melanoma, 12.2 µM; with SK-MEL-28 melanoma, 10.6 µM; in the assay with HCT-116 colon it was 2.24 µM; in the assay on SF-268 CNS, 9.8 µM; with OVCAR-8 ovarian, 11.4 µM. Also, the GI50 is 5.44 µM with M14 melanoma, 1.9 µM in the assay on 786-0 renal and 4.12 µM with HCT-15 colon. Also, the TGI in the assay on SF-539 CNS worked out at 5.45 µM; in the assay on MALME-3M melanoma, 30.5 µM; in the assay with SK-MEL-28 melanoma, 46.8 µM; in the assay on HCT-116 colon, 3.97 µM; with SF-268 CNS, 35.7 µM; with OVCAR-8 ovarian it was 32.4 µM. Further, the TGI in the assay on M14 melanoma is 17.7 µM; with 786-0 renal it was 4.57 µM; in the assay with HCT-15 colon, 23.1 µM.

Take `COc1ccc(OC)c(/C=C/C(=O)N/N=C/c2ccc(Cl)cc2)c1`: the GI50 in the assay on SF-539 CNS was 0.157 µM; with SK-MEL-28 melanoma, 0.372 µM; with HCT-116 colon, 0.0571 µM; in the assay with SF-268 CNS, 0.235 µM; in the assay on OVCAR-8 ovarian it was 0.35 µM; in the assay on M14 melanoma it was 0.0633 µM. The GI50 in the assay on 786-0 renal was 0.143 µM; in the assay on HCT-15 colon it was 0.0736 µM; in the assay on UO-31 renal, 3.37 µM. Moreover, the TGI is 11.1 µM with SF-539 CNS; more than 100 µM in the assay on SK-MEL-28 melanoma; more than 100 µM in the assay with SF-268 CNS; more than 100 µM with OVCAR-8 ovarian; more than 25.9 µM in the assay on M14 melanoma; more than 100 µM in the assay with 786-0 renal. Also, the TGI with HCT-15 colon and in the assay with UO-31 renal was more than 100 µM in each case.

Consider `CCc1[nH]c(=O)nc(N)c1-c1ccc(N2CCCCC2)c([N+](=O)[O-])c1`, for which the TGI in the assay with SF-539 CNS, with SK-MEL-28 melanoma, in the assay on HCT-116 colon, in the assay on SF-268 CNS, in the assay with OVCAR-8 ovarian and with M14 melanoma was more than 100 µM throughout. Also, the TGI in the assay on 786-0 renal, in the assay with HCT-15 colon and in the assay on UO-31 renal was more than 100 µM throughout.

In the case of `Nc1ncc(-c2cnn(CCO)c2)c2scc(-c3ccc(NC(=O)Nc4cccc(F)c4)cc3)c12`, the GI50 was 0.132 µM in the assay with MALME-3M melanoma; 0.465 µM in the assay with SK-MEL-28 melanoma; 0.206 µM in the assay on HCT-116 colon; 0.435 µM with SF-268 CNS; 0.253 µM with OVCAR-8 ovarian; 0.193 µM with M14 melanoma. For the same compound, the results for the GI50 in the assay with 786-0 renal, with HCT-15 colon and in the assay on UO-31 renal were 0.45 µM, 0.371 µM and 0.219 µM, respectively. In addition, the TGI was 1.38 µM with MALME-3M melanoma; 3.56 µM in the assay with SK-MEL-28 melanoma; 3.18 µM in the assay with HCT-116 colon; 9.73 µM in the assay with SF-268 CNS; 2.39 µM in the assay with OVCAR-8 ovarian; 3.31 µM in the assay on M14 melanoma. The figures for the TGI in the assay with 786-0 renal, with HCT-15 colon and with UO-31 renal were 6.69 µM, 14.3 µM and 1.98 µM, respectively.

For `COc1ccc2c(c1)C(=O)c1c-2n(CCCn2ccnc2)c(=O)c2ccccc12`, the GI50 is 0.244 µM in the assay with SF-539 CNS; 1.25 µM with MALME-3M melanoma; 2.08 µM in the assay on SK-MEL-28 melanoma; 0.235 µM in the assay on HCT-116 colon; 0.214 µM in the assay on SF-268 CNS; 0.602 µM in the assay on OVCAR-8 ovarian. The GI50 in the assay on 786-0 renal is 0.239 µM; in the assay on HCT-15 colon it was 1.24 µM; in the assay on UO-31 renal it was 0.0867 µM. The TGI in the assay on SF-539 CNS was 0.906 µM; with MALME-3M melanoma, 6.44 µM; in the assay on SK-MEL-28 melanoma, more than 57.4 µM; in the assay on HCT-116 colon it was 0.74 µM; with SF-268 CNS it was more than 25.3 µM; in the assay with OVCAR-8 ovarian, more than 69.2 µM. Also, the results for the TGI with 786-0 renal, in the assay with HCT-15 colon and in the assay with UO-31 renal were 1.66 µM, 7.72 µM and 0.476 µM, respectively.

With `CC(=O)OC1CC(O)C23COC(O)C1(C)C2CC(O)C1(C)C3C(=O)C(O)C2(C)C(c3ccoc3)CC3OC321` (configuration not stated), the GI50 in the assay with SF-539 CNS was 0.14 µM; with SK-MEL-28 melanoma it was more than 100 µM; in the assay on HCT-116 colon, less than 0.01 µM; in the assay on SF-268 CNS, 2.2 µM; with OVCAR-8 ovarian, 0.191 µM; in the assay on M14 melanoma it was 0.0793 µM. Further, the GI50 in the assay on 786-0 renal was 0.0897 µM; in the assay with HCT-15 colon, 1.26 µM; in the assay with UO-31 renal, 3.08 µM. Moreover, the TGI in the assay on SF-539 CNS was more than 100 µM; in the assay with SK-MEL-28 melanoma it was more than 100 µM; in the assay with HCT-116 colon it was more than 100 µM; in the assay on SF-268 CNS, more than 100 µM; with M14 melanoma it was more than 59.8 µM; in the assay with 786-0 renal, more than 64.2 µM. In addition, the TGI with HCT-15 colon was more than 100 µM; in the assay with UO-31 renal, more than 41.4 µM.

In the case of `Fc1cc(F)c(COc2cc(Cn3cnc4c(Cl)nc(Cl)nc43)ccc2C23CC4CC(CC(C4)C2)C3)cc1F`, the GI50 is 17.9 µM in the assay with SF-539 CNS; 1.92 µM with MALME-3M melanoma; 18.2 µM with SK-MEL-28 melanoma; 15.2 µM in the assay on HCT-116 colon; 16.4 µM in the assay with SF-268 CNS; 18 µM with OVCAR-8 ovarian. The results for the GI50 with 786-0 renal, with HCT-15 colon and with UO-31 renal were 19.4 µM, 16 µM and 17.8 µM, respectively. In addition, the TGI amounted to 32.3 µM in the assay on SF-539 CNS; 4.75 µM in the assay on MALME-3M melanoma; 37.4 µM in the assay with SK-MEL-28 melanoma; 28.5 µM with HCT-116 colon; 33.1 µM in the assay on SF-268 CNS; 38.4 µM with OVCAR-8 ovarian. In addition, the TGI was 34.9 µM with 786-0 renal, 31.9 µM with HCT-15 colon and 31.6 µM with UO-31 renal.

Regarding `CCS(=O)(=O)c1ccc(OC)c(Nc2ncc(-c3cccc(C(C)=O)c3)o2)c1`, the GI50 in the assay on SF-539 CNS was 8.69 µM; in the assay on SK-MEL-28 melanoma, more than 25 µM; in the assay with HCT-116 colon, 11.4 µM; in the assay on SF-268 CNS, 17.9 µM; with OVCAR-8 ovarian, more than 25 µM; in the assay on M14 melanoma it was more than 25 µM. The values for the GI50 with 786-0 renal, with HCT-15 colon and with UO-31 renal were more than 25 µM, more than 25 µM and 5.86 µM, respectively. The TGI in the assay with SF-539 CNS, in the assay on SK-MEL-28 melanoma, with HCT-116 colon, in the assay with SF-268 CNS, with OVCAR-8 ovarian and with M14 melanoma was more than 25 µM in each case. The TGI with 786-0 renal, with HCT-15 colon and in the assay on UO-31 renal was more than 25 µM each time.

As for `O=C1NC(=O)c2ccc([N+](=O)[O-])c3cccc1c23`, the TGI with SF-539 CNS came out at 31.8 µM; in the assay on SK-MEL-28 melanoma, 37.8 µM; in the assay on HCT-116 colon, 23.9 µM; with SF-268 CNS it was 62 µM; with OVCAR-8 ovarian, 26.1 µM; in the assay on M14 melanoma, 28.4 µM. Besides, the figures for the TGI with 786-0 renal, in the assay with HCT-15 colon and in the assay with UO-31 renal were 27 µM, 22.4 µM and 29.8 µM, respectively.
